How the values were obtained:
N2O emission = assay: N2O inhibition in vegetation hall over 10 days using ammonium sulfate as fertilizer; conditions: 10 days cumulative
Excerpt: N2O inhibition in vegetation hall over 10 days (cumulative values) using AS (ammonium sulfate) as fertilizer: […]

[1] = tested on: nitrification in soil (microbial biomass); assay: Soil incubation test for inhibition of nitrification (Example 4); assay type: cell-based; conditions: n=4
Description: 100 g soil is filled into 500 ml plastic bottles (e.g. soil sampled from the field) and is moistened to 50% water holding capacity. The soil is incubated at 20° C. for two weeks to activate the microbial biomass. 1 ml test solution, containing the components of the mixture in the appropriate concentration (usually from 0.1 to 3% of nitrogen N), or DMSO and 10 mg nitrogen in the form of ammoniumsulfate-N is added to the soil and everything mixed well. Bottles are capped but loosely to allow air exchange. The bottles are then incubated at 20° C. for 0, 14 and 28 days.
For analysis, 300 ml of a 1% K2SO4-solution is added to the bottle containing the soil and shaken for 2 hours in a horizontal shaker at 150 rpm. Then the whole solution is filtered through a filter (Macherey-Nagel Filter MN 807%). Ammonium and nitrate content is then analyzed in the filtrate in an autoanalyzer at 550 nm (Merck, AA11).
The inhibition (NI@a specified concentration) is calculated as follows:
4 tests regarding the inhibition of nitrification were performed in each case (n=4).
The tested amounts were 0.3 and 1% by weight of component (ii) of the MOF relative to NH4—N.

[2] = tested on: nitrification in soil Limburgerhof (microbial community); assay: Soil incubation with inhibitor mixed into ammonium sulfate nitrate melt (Example 5); assay type: cell-based; conditions: after 14 days, added to ASS melt at 125° C.
Description: The MOF of Example 3 was tested as follows in terms of the inhibition of nitrification: The nitrification inhibition capacity was tested after incubation of soil. In the experiment 50 g soil (soil Limburgerhof with pH (CaCl2)) 6, 73% sand, 23% silt, 4% clay, which is classified according to FAO as sandy loam) was filled into 250 ml plastic bottles and was moistened to 50% water holding capacity. The soil was incubated at 20° C. for about one week prior to the experiments to activate the microbial community. Ammonium sulfate nitrate (ASS) was heated to 125° C. in presence of 4% water. After the ASS had melted, Zinc-5-Ethoxy-3-Methyl-Pyrazolate or the underlying pyrazole compound was added and was mixed in for 1 minute. Afterwards, the melted ASS was poured onto a metal plate and cooled down to room temperature. Depending on treatment, 26.3 mg the treated ASS were milled and added to the soil and everything was mixed well. […] The fertilizer amount used for the experiment was calculated to contain 5 mg nitrogen in the form of ammonium sulfate-N(NH4—N)). […] Ammonium and nitrate content is then analyzed in the filtrate using an autoanalyzer. Ammonium was quantified via an indophenol blue dye at 660 nm, and nitrate via an azo dye at 540 nm. The nitrification inhibition is expressed as % of NH4—N recovery from fertilized NH4—N-(100%) after subtraction of unfertilized control soil.

[3] = Evaporation of active ingredient in thermogravimetric analyzer; assay type: physicochemical; conditions: during 1 hour at 30° C.; continuous flow of N2 gas
Description: The evaporation of 5-ethoxy-3-methyl-1H-pyrazole and the corresponding Zn MOF of 5-ethoxy-3-methyl-1H-pyrazole, i.e. Zinc-5-Ethoxy-3-Methyl-Pyrazolate, has been measured in a thermogravimetric analyzer instrument by the following procedure. A few milligrams of the test substance were positioned on the probe of the thermogravimetric analyzer, in a continuous flow of N2 gas. After equilibrating the system to 30° C., the weight of the sample was monitored over a time period of 65 minutes at a temperature of 30° C.

[4] = 0.3 wt.-% of pyrazolate relative to NH4—N, after 14 days
[5] = 0.3 wt.-% of pyrazolate relative to NH4—N, after 28 days
[6] = 1.0 wt.-% of pyrazolate relative to NH4—N, after 14 days
[7] = 1.0 wt.-% of pyrazolate relative to NH4—N, after 28 days

Structure (SMILES) | % Emission (N2O) (N2O emission; 0.3 wt.-% relative to NH4—N) [%] | % Inhibition (N2O) (N2O emission; 0.3 wt.-% relative to NH4—N) [%] | Emission cumulative minus background (N2O) (N2O emission; 0.3 wt.-% relative to NH4—N) | % Emission (N2O) (N2O emission; 1.0 wt.-% relative to NH4—N) [%] | % Inhibition (N2O) (N2O emission; 1.0 wt.-% relative to NH4—N) [%] | Emission cumulative minus background (N2O) (N2O emission; 1.0 wt.-% relative to NH4—N) | Reduction of NO3− production [1, 4] | Residual amounts of NH4 [1, 4] | Reduction of NO3− production [1, 5] | Residual amounts of NH4 [1, 5] | Reduction of NO3− production [1, 6] | Residual amounts of NH4 [1, 6] | Reduction of NO3− production [1, 7] | Residual amounts of NH4 [1, 7] | Residual amounts of NH4 (% of NH4—N recovery from fertilized NH4—N) ([2]; 0.3 wt.-% relative to NH4—N) [%] | Residual amounts of NH4 (% of NH4—N recovery from fertilized NH4—N) ([2]; 0.8 wt.-% relative to NH4—N) [%] | % loss (evaporation of active ingredient) [3] [%]
COc1cc(C)n[nH]1 [5-Methoxy-3-Methyl-1H-Pyrazole] | 10.4 | 89.6 | 393 | 5.0 | 95.0 | 191 | 75 | 70 | 40 | 34 | 88 | 90 | 74 | 68 |  |  | 
CCOc1cc(C)n[nH]1 [5-ethoxy-3-methyl-1H-pyrazole] |  |  |  |  |  |  |  |  |  |  |  |  |  |  | 45.4 | 57.0 | 5.6

— patent US20240309022A1, “Metal-Organic Frameworks with Pyrazole-Based Building Blocks” (BASF SE, priority 2021, published 2024)
